According to patent publication US8962244B2, “Compounds for modulating RNA binding proteins and uses therefor” (University of Massachusetts, priority 2009, dated 2015):

Assays:
MEX-5 [1] = molecular target: T1, MEX-5 (Caenorhabditis elegans, UniProt Q9XUB2); assay: Fluorescence polarization screening of MEX-5 binding to fluorescein-labeled TCR2 RNA; settings: for remaining activity at 192 µM: 192 μM test compound, score = polarization relative to no-drug and no-protein controls, 0.25 = 75% inhibition, lowest score = greatest inhibition, read-out: MEX-5 score
T1 construct: The fragment of mex-5 containing the TZF domain (amino acids 236-350) was amplified; made in house; host or cells: Escherichia coli JM109
T1 sequence (Q9XUB2 236-350): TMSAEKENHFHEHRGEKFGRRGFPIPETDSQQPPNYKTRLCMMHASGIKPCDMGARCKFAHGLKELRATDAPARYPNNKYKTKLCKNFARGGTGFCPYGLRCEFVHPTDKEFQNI
Description: The expression and purification of recombinant MEX-5 protein has previously been described in Pagano, J. M., Farley, B. M., McCoig, L. M. and Ryder, S. P. (2007) “Molecular basis of RNA recognition by the embryonic polarity determinant MEX-5;” J Biol Chem; 282, 8883-8894. The fragment of mex-5 containing the TZF domain (amino acids 236-350) was amplified from a commercially available ORFeome clone (Open Biosystems) and sub-cloned into the vector pMal-c (NEB), which encodes maltose binding protein as an N-terminal fusion. This construct is termed pMal-MEX-5 (236-350).
MEX-5 is expressed in Escherchia. coli JM109 liquid cultures grown at 37° C. Cultures were induced during mid log phase by the addition of 0.1 mM isopropyl 1-thio-β-D-galactopyranoside (IPTG) and allowed to grow for three hours. An amount of 100 μM zinc acetate (final concentration) was added at the time of induction. The pelleted cells were resuspended in lysis buffer (50 mM Tris pH 8.8, 200 mM NaCl, 2 mM DTT, EDTA free protease inhibitor tablet (Roche), 100 μM Zn(OAc)2) and lysed by sonication. The soluble protein was purified in three steps using standard chromatography methods: (1) amylose affinity (NEB), (2) Hi-TRAP-Q (GE Healthcare), and (3) Hi-TRAP-S (GE Healthcare). The Q buffer was composed of 50 mM Tris, pH 8.8, 20 mM-1500 mM NaCl, 2 mM DTT, and 100 μM Zn(OAc)2. The S buffer was composed of 50 mM MOPS, pH 6.0, 20 mM-1500 mM NaCl, 2 mM DTT, 100 μM Zn(OAc)2. The pure fractions, determined by coomassie-stained SDS-PAGE, were dialyzed into storage buffer (20 mM Tris, pH 8.0, 25 mM NaCl, 100 μM Zn(OAc)2, 2 mM DTT). The protein concentration was determined by measuring absorbance at 280 nm and the calculated extinction coefficient. The protein was stored at 50 μM concentration at 4° C.
All RNA oligonucleotides were chemically synthesized by Dharmacon or Integrated DNA Technologies. Upon arrival, each RNA was deprotected and stored according to the manufacturer's instructions. Prior to use, the RNA was resuspended in 10 mM Tris-HCl, pH 8.0, 0.1 mM EDTA, and the concentration determined by UV spectrophotometry using the calculated extinction coefficient at 260 nm based on the specific sequence. The sequence of the MEX-5 binding RNA (TCR2) is […] (SEQ ID NO:1). The POS-1 binding RNA (BMF018) is […] (SEQ ID NO:2). The MEX-3 binding RNA (SEQ 14) is […] (SEQ ID NO:3).
The RNA used for the small molecule screen was labeled at the 3′-end with fluorescein by Dharmacon during synthesis. In a few cases, follow up experiments were performed with post-synthetically labeled RNA. In this case, fluorescein 5-thiosemicarbazide (FTSC, Invitrogen) was used to 3′-end label each RNA after treatment with sodium periodate (see Reines, S. A. and Cantor, C. R. (1974) “New fluorescent hydrazide reagents for the oxidized 3′-terminus of RNA” Nucleic Acids Res. 1, 767-786). A representative 50 μl reaction consisted of 0.5 nanomoles RNA, 100 mM NaOAc, pH 5.1, and 5 nanomoles NaIO4. After the reaction was complete (90 minutes at room temperature), the sample was ethanol precipitated by adding 1 μl RNase free glycogen (Invitrogen 20 μg/μl), 1/20th volume of 5 M NaCl, and 2 volumes of 100% ice-cold ethanol. The resulting pellet was resuspended in 50 μl of 100 mM NaOAc, pH 5.1 containing 1 mM FTSC and was allowed to react overnight at 4° C. in the dark. The unreacted label was removed by ethanol precipitation with resuspension of the pellet in a small volume of TE, and purification over a Roche G-25 size exclusion spin column. The labeling efficiency is determined by calculating the ratio of fluorescein absorbance at 490 nm to RNA-fluorescein absorbance at 260 nm. Typical efficiencies are 60-80%.
The ability of MEX-5 to associate with RNA was monitored by fluorescence polarization using a victor V3 or victor V2V plate reader (Perkin Elmer) in 384-well FluoTrak microplates (Grenier). […]

POS-1 = molecular target: T2, POS-1 (Caenorhabditis elegans, UniProt G5EF15); assay: Fluorescence polarization screening of POS-1 binding to fluorescein-labeled BMF018 RNA; settings: 192 μM test compound; score = polarization relative to no-drug and no-protein controls; 0.25 = 75% inhibition; lowest score = greatest inhibition; read-out: POS-1 score
T2 construct: 6-his tag (N); made in house; host or cells: E. coli BL21 (DE3) Gold
T2 sequence (G5EF15 80-180): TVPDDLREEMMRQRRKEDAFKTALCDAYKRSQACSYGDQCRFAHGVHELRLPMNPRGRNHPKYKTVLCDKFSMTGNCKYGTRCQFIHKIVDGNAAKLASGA

MEX-5 [2] = molecular target: T1, MEX-5; assay: Dose response gel shift assay, MEX-5 with TCR2 RNA; format: binding; settings: 120 nM MEX-5, 2-3 nM fluorescein labeled TCR2 RNA
Procedure: A further dose response assay was performed on select compounds of the invention as described below. A sub-saturating concentration of MEX-5 or POS-1 (120 nM) was equilibrated with limiting fluorescein labeled RNA (2-3 nM, TCR2 RNA or MEX-3 UTR fragment RNA respectively) in the presence of varying concentrations of compound. Following equilibration, the reactions were loaded onto a 5% slab polyacrylamide gel and subjected to electrophoresis for about 1 hour to separate protein-RNA complex from free RNA. The gel was scanned on a FUJI FLA-5000 imager, and the fraction of bound RNA determined by dividing the intensity of the bound RNA by the intensity of the bound RNA plus the free RNA. The […] was plotted as a function of compound concentration and fit to a sigmoidal dose response function in order to determine the IC50, the concentration that gives half maximal inhibition.

MEX-3 = assay: Fluorescence polarization screening of MEX-3 binding to fluorescein-labeled SEQ 14 RNA; settings: 192 μM test compound; 80 nM MBP-MEX-3, no zinc acetate; lowest score = greatest inhibition

Row | remaining activity at 192 µM (MEX-5 [1]) | remaining activity at 192 µM (POS-1) | IC50 (MEX-5 [2]) | IC50 (MEX-5 [1]; further screening as described above (fluorescence polarization), dose response) | MEX-3 score (MEX-3) | SMILES
1 | -0.142% | 0.543% | – | – | – | O=c1cc(-c2ccccc2)c2ccc(O)c(O)c2o1 [I]
2 | – | 13.8% | 3.8 µM | 3.5 µM | – | O=C1C2CC=C(Cl)CC2C(=O)N1c1nnc[nH]1 (stereo not drawn) [DJ]
3 | – | – | – | – | 0.124 | O=[N+]([O-])c1cccc(/C(=N\O)Nc2nnc(-c3cccnc3)s2)c1 [EZ]
4 | 21.7% | 23.9% | – | – | – | Oc1ccc(Br)cc1-c1n[nH]c(=S)n1Cc1ccccc1 [CB]
5 | 5% | 10.5% | – | – | – | CC1(C)CC(Cc2nnc(S)[nH]2)C(=O)O1 (stereo not drawn) [S]
6 | -0.0941% | 8.51% | – | – | – | CC(=O)Oc1ccc(S(=O)(=O)c2ccc(OC(C)=O)c(OC(C)=O)c2)cc1OC(C)=O [J]
7 | 21.6% | 23% | – | – | – | O=C1NN(c2ccccc2)C(=O)/C1=C\c1cccc(OC(=O)c2cccs2)c1 [CA]
8 | – | – | – | – | 0.2093 | Cc1ccc(C(CC(=O)N2CCCC2)c2ccco2)cc1 (stereo not drawn) [FA]
9 | 0.00138% | 5.81% | – | – | – | O=C(Oc1ccc2c(c1)C1C=CCC1C(C(=O)O)N2)c1ccc(Cl)cc1Cl (stereo not drawn) [K]
10 | 6.4% | 5.39% | – | – | – | O=C(O)C1Nc2cc(Cl)cc(Cl)c2C2C=CCC12 (stereo not drawn) [W]

The next lines start with the molecule.

Row | SMILES | remaining activity at 192 µM (MEX-5 [1]) | remaining activity at 192 µM (POS-1) | IC50 (MEX-5 [2]) | IC50 (MEX-5 [1]; further screening as described above (fluorescence polarization), dose response) | MEX-3 score (MEX-3)
11 | Cc1nnc(NC(=O)c2cccc(C(=O)Nc3nnc(C)s3)n2)s1 [AF] | 8.13% | 22.7% | – | – | –
12 | O=C(Cn1cnc2ccccc2c1=O)Nc1ccc(S(=O)(=O)Nc2nccs2)cc1 [BJ] | 18.2% | 11.9% | – | – | –
13 | O=C(O)c1ccccc1NC(=S)NC(=O)c1sc2ccccc2c1Cl [BP] | 19.2% | 4.54% | – | – | –
14 | Cc1sc(NC(=O)c2cnccn2)c(C(N)=O)c1C [AZ] | 14.4% | 25.4% | – | – | –
15 | O=C(O)c1cc(NC(=O)c2cccc(N3C(=O)CCC3=O)c2)cc(C(=O)O)c1 [AH] | 8.76% | 14.6% | – | – | –
16 | Cc1ccc(S(=O)(=O)NC(=S)NCc2cccc(Oc3ccccc3)c2)cc1 [BY] | 21.3% | 14.4% | – | – | –
17 | Cc1n[nH]c(SCc2ccc(CSc3nc(C)n[nH]3)cc2)n1 [AA] | 7.14% | 0.702% | – | – | –
18 | Sc1nnc(CSCc2ccccc2Cl)n1-c1ccccc1 [BL] | 18.8% | 27.6% | – | – | –
19 | O=[N+]([O-])c1ccc(S(=O)(=O)Nc2cc(Cl)ccc2O)cc1 [AD] | 8.04% | 8.27% | – | – | –
20 | CCOC(=O)c1ccccc1OC(=O)c1ccc2c(c1)C1C=CCC1C(C(=O)O)N2 (stereo not drawn) [B] | -3.69% | 5.51% | – | – | –
